Experimental data: patent US20260284044A1, “PHARMACEUTICAL COMPOSITIONS OF VARENICLINE AND PROCESS THEREOF” (TENSHI KAIZEN L PRIVATE LIMITED, priority 2023, published 2026)

Assays:
[1] = FDA, cited from earlier work
[2] = N-nitroso varenicline content of API and tablets, initial and on stability storage; type: physicochemical

Compound	Intake limit considered reasonably safe for humans ([1]; based on lifetime exposure) [nanograms per day]	Interim acceptable intake limit ([1]; interim limit for distribution in the US) [ng per day]	Results (nitroso varenicline) ([2]; Batch API (EL-01-A179-2001003), limit NMT 18.5 ppm)	Initial (ppm) (N-nitroso varenicline) ([2]; Orally disintegrating tablets 1 mg and API, initial data)
O=NN1CC2CC(C1)c1cc3nccnc3cc12 [N-nitroso-varenicline]	37	≤ 185	–	–
(2R,3R)-2,3-dihydroxybutanedioic acid;5,8,14-triazatetracyclo [10.3.1.02,11.04,9]hexadeca-2,4,6,8,10-pentaene [Varenicline API]	–	–	Less than 2 ppm	1.73
